{"source": "patent US12514883B2", "about": "“Compositions and methods for modulating lipid and steroid metabolism” (The Regents of the University of California, priority 2019, dated 2026)", "key": {"[1]": {"system": "T. sanguinis", "assay": "[3H]5-HT uptake assay in T. sanguinis", "format": "cell-based, Turicibacter sanguinis", "conditions": "30 min pre-treatment"}, "[2]": {"assay": "Lipid clinical chemistry analysis of serum", "format": "in vivo", "conditions": "antibiotic-treated mice gavaged with T. sanguinis pretreated with 200 μM 5-HT+Flx", "excerpt": "Serum samples were collected from SPF, germfree, Turicibacter-monocolonized or Turicibacter-enriched mice and submitted to Charles River Clinical Pathology for analysis of the lipid species, including total cholesterol, free fatty acids, high-density lipoprotein, low-density lipoprotein and total triglycerides."}, "[3]": {"system": "T. sanguinis", "assay": "APP+ uptake assay in T. sanguinis", "format": "cell-based, Turicibacter sanguinis", "conditions": "200 uM pre-treatment for 30 min", "experimental": "(§1) T. sanguinis and B. theta were cultured anaerobically as described above and subcultured for 15-17 h to reach the stationaryphase. Bacterial APP+ transport activity was measured according to the manufacturer's instructions using the Neurotransmitter Transporter Uptake Assay Kit (Molecular Devices). […] Then cells were treated with APP+ for 4 hours at 37° C. Intracellular fluorescence signal was measured at 520 nm using a multimodal plate reader (Biotek Synergy H1). Bacterial suspensions were mounted on slides and imaged using an epifluorescence microscope (EVOS). Images of B. theta were brightened by 90% to resolve fluorescence signal."}, "[4]": {"system": "Turicibacter sanguinis MOL361", "assay": "T. sanguinis growth curve and viability", "format": "cell-based", "experimental": "Scale bars: 10 μm. […] Scale bar denotes 100 um.\nCell density of T. sanguinis at 6, 12, 18, 30, 36, 45 and 48 hours of growth in the presence of 200 uM 5-HT, Flx or both 5-HT and Flx. Treatments were added at the start of culture (e.g. t=0 h).\n(§2) Turicibacter sanguinis MOL361 (DSM-14220, DSMZ) was grown in Schaedler's Broth (BD Biosciences) in an anaerobic chamber of 10% carbon dioxide, 5% hydrogen, and balanced nitrogen. Bacteroides thetaiotaomicron (ATCC 29148) was grown in Brain Heart Infusion media (BD Biosciences) supplemented with 5 ug/ml hemin (Frontier Scientific) and 0.5 ug/ml vitamin K1 (Sigma Aldrich) under the same anaerobic conditions. Mouse- and human-derived spore-forming bacterial consortia were isolated by chloroform treatment and propagated in mice."}, "[5]": {"system": "T. sanguinis MOL361", "assay": "5-HT levels in culture supernatant of T. sanguinis grown in Schaedler broth", "format": "cell-based, Turicibacter sanguinis", "conditions": "200 uM fluoxetine, 0-36 hours of growth", "experimental": "as §2"}, "[6]": {"system": "T. sanguinis", "assay": "[3H]NE uptake assay in T. sanguinis", "format": "cell-based, Turicibacter sanguinis", "conditions": "30 min pre-treatment, 200 uM fluoxetine", "experimental": "T. sanguinis or B. theta were cultured anaerobically as described above and subcultured for 15-17 h to reach the stationary phase. […] Cells were then incubated with 1 μM tritiated 5-HT (plus 0-500 μM unlabelled 5-HT for dose-dependent assays), NE or Trp (PerkinElmer). For T. sanguinis, all uptake reactions were performed at room temperature. For B. theta, uptake reactions were performed at either room temperature or 37° C. Uptake reactions were terminated by washing in ice cold Kreb-Ringer's buffer. Washed T. sanguinis was trapped through 0.45 um PVDF filters on MultiScreenHTS plates connected to a vacuum manifold (EMD Millipore). For B. theta, washed cells were either trapped through 0.45-μm PVDF filters or lysed by incubating in TE buffer plus triton and lysozyme. Extracted filters or lysed cells were incubated in 4 ml Filter Count scintillation fluid (Perkin Elmer) for 1 hour at room temp, and radioactivity was measured using a liquid scintillation counter (Beckman LS6500)."}, "[7]": {"system": "T. sanguinis", "assay": "Bacterial transcriptomic analysis of T. sanguinis", "format": "cell-based, Turicibacter sanguinis", "experimental": "T. sanguinis was cultured anaerobically as described above and subcultured to mid-log-phase. […] Bacteria were washed with PBS and lysed in TE buffer containing 1.2% Triton X-100 and 15 mg/ml lysozyme. RNA was extracted using the RNAeasy Mini kit with on-column genomic DNA-digest (Qiagen). cDNA synthesis was performed using the qScript cDNA synthesis kit (Quantabio). RNA quality of RIN>8.0 was confirmed using the 4200 Tapestation system (Agilent). rRNA were removed with the Ribo-Zero Bacterial kit (Illumina), RNA was prepared using the TruSeq Stranded RNA kit (Illumina) and 2×75 bp paired end reads were sequenced using the Illumina HiSeq platform by the UCLA Neuroscience Genomics Core. The bacterial RNAseq analysis package Rockhopper was used for quality filtering, mapping against the T. sanguinis PC909 genome and differential expression analysis. […] Heatmaps containing differentially expressed genes with adjusted p<0.05 and coefficient of variation (standard deviation/mean)<3 were generated using the pheatmap package for R. GO term enrichment analysis of differentially expressed genes with adjusted p<0.05 was conducted using DAVID. Functional protein networks were generated with differentially expressed genes with adjusted p<0.05 using STRING. Bacterial FM 4-64 staining and imaging. […] Cells were washed with PBS, fixed in 4% paraformaldehyde, and stained with FM4-64 (5 μg ml−1) and 4′,6-diamidino-2-phenylindole (DAPI; 0.2 μg ml−1) according to the manufacturer's instructions. Cells were wet-mounted on glass slides and cover slips. Images were acquired at 63× using the Zeiss LSM 780 confocal microscope. Images were analysed using Fiji software51 by a researcher blinded to the experimental group. FM 4-64 puncta were counted manually based on circularity and fluorescence intensity. Counts were normalized to cell area, as determined by thresholding of DAPI staining."}, "[8]": {"system": "fecal microbiota", "assay": "Fluoxetine treatment of SPF mice, fecal 16S rDNA sequencing", "format": "in vivo", "experimental": "(§3) Bacterial genomic DNA was extracted from mouse fecal samples using the MoBio PowerSoil Kit. The library was generated according to methods adapted from Capraso J. G., et al., PNAS 108 Suppl 1, 4516-4522 (2011). The V4 regions of the 16S rDNA gene were PCR amplified using individually barcoded universal primers and 30 ng of the extracted genomic DNA. The PCR reaction was set up in triplicate, and the PCR product was purified using the Qiaquick PCR purification kit (Qiagen). In total, 250 ng of purified PCR product from each sample was pooled and sequenced by Laragen, Inc. using the Illumina MiSeq platform and 2×250 bp reagent kit for paired-end sequencing. Operational taxonomic units (OTUs) were chosen by open reference OTU picking based on 97% sequence similarity to the Greengenes 13_5 database. Taxonomy assignment and rarefaction were performed using QIIME1.8.0. Metagenomes were inferred from closed reference OTU tables using PICRUSt.\nFecal samples were harvested on day 0, 1, 4, 7 or 14 of treatment as indicated in figure legends and processed for 16S rDNA sequencing as described above."}, "[9]": {"system": "gut microbiota (Clostridia)", "assay": "Fecal 16S rDNA microbiota profiling after oral 5-HT supplementation", "format": "in vivo, mice", "experimental": "(§4) Water was supplemented with 5-HT (Sigma Aldrich) at 1.5 mg/ml provided ad libitum to mice for 2 weeks. The amount of water consumed and mouse weight were measured on days 3, 7, 10 and 14 of treatment. Mice were sacrificed one day after treatment for 5-HT assays and fecal 16S rDNA profiling was conducted as described below.\nas §3"}, "[10]": {"system": "T. sanguinis MOL361", "assay": "Turicibacter colonization of antibiotic-treated mice (FISH, 16S rDNA)", "format": "in vivo"}, "[11]": {"system": "CUW_0748", "assay": "[3H]5-HT uptake in B. thetaiotaomicron expressing CUW_0748", "format": "cell-based", "experimental": "The vector was transformed into E. coli with selection using 100 ug/ml ampicillin and conjugated into B. theta using the E. coli helper plasmid RK231 with 50 ug/ml kanamycin selection. E. coli was killed using 200 ug/ml gentamicin and transconjugant strains were selected using 5 ug/ml erythromycin. Successful conjugation and gene expression were confirmed by PCR and qPCR for CUW_0748 in DNA and RNA extracted from B. theta clones. T. sanguinis or B. theta were cultured anaerobically as described above and subcultured for 15-17 h to reach the stationary phase. […] For T. sanguinis, all uptake reactions were performed at room temperature. For B. theta, uptake reactions were performed at either room temperature or 37° C. Uptake reactions were terminated by washing in ice cold Kreb-Ringer's buffer. Washed T. sanguinis was trapped through 0.45 um PVDF filters on MultiScreenHTS plates connected to a vacuum manifold (EMD Millipore). For B. theta, washed cells were either trapped through 0.45-μm PVDF filters or lysed by incubating in TE buffer plus triton and lysozyme. Extracted filters or lysed cells were incubated in 4 ml Filter Count scintillation fluid (Perkin Elmer) for 1 hour at room temp, and radioactivity was measured using a liquid scintillation counter (Beckman LS6500)."}, "[12]": {"system": "CUW_0748", "assay": "APP+ uptake in B. thetaiotaomicron expressing CUW_0748", "format": "cell-based", "experimental": "as §1"}, "[13]": {"assay": "Fecal 5-HT levels after 5-HT in drinking water (ELISA)", "format": "in vivo, mice", "experimental": "as §4\nBlood samples were collected by cardiac puncture and spun through SST vacutainers (Becton Dickinson) for serum separation. […] Serotonin levels were detected by ELISA according to the manufacturer's instructions (Eagle Biosciences). Readings from tissue samples were normalized to total protein content as detected by BCA assay or the 660 nm Protein Assay (Thermo Pierce).\nSPF mice were treated with ampicillin, gentamicin, neomycin and vancomycin (AGNV) in their drinking water at 0.5 g/L for 4 days. […] 5-HT drinking water concentration was determined by calculating the same molar concentration as Flx in drinking water. […] Three days after the final gavage, mice were euthanized by CO2 and the small and large intestines were collected for fluorescence in situ hybridization (FISH) as described below and lumenal contents from the small and large intestines were harvested for 16S rDNA sequencing. […] Tissues were collected and analysed 3 d after the final gavage. […]"}, "[14]": {"conditions": "SPF mice gavaged with fluoxetine"}}, "data": [{"smiles": "COc1cc2c(cc1OC)C1CC(=O)C(CC(C)C)CN1CC2", "note": "(centres unmarked) [tetrabenazine]", "values": [{"measurement": "effect on [3H]5-HT uptake by T. sanguinis", "setting": "[1]", "result": "not observed"}]}, {"smiles": "CNCCC(Oc1ccc(C(F)(F)F)cc1)c1ccccc1", "note": "(centres unmarked) [fluoxetine]", "values": [{"measurement": "serum triglyceride levels compared with mice colonized with vehicle-treated T. sanguinis", "setting": "[2]", "result": "increased"}, {"measurement": "effect on APP+ uptake (import) by T. sanguinis", "setting": "[3]", "result": "partially decreased"}, {"measurement": "effect on T. sanguinis growth over long-term culture", "setting": "[4]; 200 uM, Schaedler broth, up to 48 hours", "result": "cytostatic effects"}, {"measurement": "effect on decrease of 5-HT levels in the media over time", "setting": "[5]", "result": "prevented"}, {"measurement": "effect on bacterial uptake of norepinephrine ([3H]NE)", "setting": "[6]", "result": "no effect"}, {"measurement": "change in T. sanguinis gene expression in the absence of 5-HT", "setting": "[7]; fluoxetine alone", "result": "little change"}, {"measurement": "effect on T. sanguinis gene expression compared with 5-HT-treated controls", "setting": "[7]; fluoxetine with 5-HT, 4 hr", "result": "upregulated the expression of genes encoding proteins relevant to efflux transporters, ABC transporters and sporulation"}, {"measurement": "Turicibacter in fecal microbiota", "setting": "[8]; SPF mice gavaged with 10 mg/kg fluoxetine", "result": "decreased"}, {"measurement": "Clostridiaceae in fecal microbiota", "setting": "[8]; [14]", "result": "decreased"}, {"measurement": "bacterial alpha diversity of fecal microbiota", "setting": "[8]; [14]", "result": "no significant differences"}]}, {"smiles": "NC[C@H](O)c1ccc(O)c(O)c1", "note": "[norepinephrine]", "values": [{"measurement": "effect on APP+ uptake (import) by T. sanguinis", "setting": "[3]", "result": "modest, but not statistically significant, effect"}]}, {"smiles": "NCCc1c[nH]c2ccc(O)cc12", "note": "[5-HT, 5-hydroxytryptamine]", "values": [{"measurement": "combined relative abundance of Clostridiales, Clostridiaceae, Ruminococcus and Ruminococcaceae (mean±S.E.M.)", "setting": "[9]; 5-HT-supplemented mice, fecal microbiota", "result": "86.2±5.8", "unit": "%"}, {"measurement": "increase of combined relative abundance of Clostridiales, Clostridiaceae, Ruminococcus and Ruminococcaceae", "setting": "[9]; SPF mice, 1.5 mg/ml 5-HT in drinking water 2 weeks, vs SPF mice", "result": 8.4, "unit": "fold"}, {"measurement": "effect on species of Clostridia in fecal microbiota", "setting": "[9]; oral 5-HT supplementation, SPF mice", "result": "substantially enriched"}, {"measurement": "T. sanguinis levels/colonization in the small intestine", "setting": "[10]; antibiotic-treated SPF mice, bacterial pre-treatment plus same treatment in drinking water", "result": "detectable T. sanguinis colonization"}, {"measurement": "T. sanguinis competitive colonization, bacterial pre-treatment only", "setting": "[10]; antibiotic-treated mice, no supplementation in drinking water", "result": "promoted its competitive colonization"}, {"measurement": "effect on APP+ uptake (import) by T. sanguinis", "setting": "[3]", "result": "partially decreased"}, {"measurement": "T. sanguinis survival/viability after short-term (acute) exposure", "setting": "[4]; 4 h exposure, 200 μM", "result": "not affected"}, {"measurement": "effect on 1 μM [3H]5-HT uptake conferred by CUW_0748", "setting": "[11]", "result": "inhibited"}, {"measurement": "effect on APP+ uptake conferred by CUW_0748", "setting": "[12]", "result": "inhibited"}, {"measurement": "effect on T. sanguinis gene expression pathways vs vehicle", "setting": "[7]; 200 uM 5-HT, 4 hr", "result": "downregulated the expression of genes that clustered into pathways for cell differentiation, morphogenesis and sporulation"}, {"measurement": "number of bacterial genes with significantly altered expression", "setting": "[7]; 4 hr exposure, 200 uM, vs vehicle", "result": 71, "unit": "genes"}, {"measurement": "differentially expressed genes (q<0.05) downregulated relative to vehicle", "setting": "[7]; T. sanguinis treated with 5-HT", "result": 54, "unit": "genes"}, {"measurement": "increase of fecal 5-HT levels relative to vehicle-treated controls", "setting": "[13]; SPF mice, 1.5 mg/ml 5-HT in the drinking water for 2 weeks", "result": 642, "unit": "fold"}, {"measurement": "elevation of fecal 5-HT levels over vehicle", "setting": "[13]; antibiotic-treated mice, 5-HT 24 μg/ml in drinking water", "result": "approximately 6 fold"}]}]}
